This is an account of results in patent US12157746B2, “Tetrahydro-1H-pyrazino[2,1-a]isoindolylquinoline compounds for the treatment of autoimmune disease” (F. HOFFMANN-LA ROCHE AG, priority 2018, dated 2024).

A value given as a limit tells only on which side of the number the result lay.

The target of this experiment is T1, human TLR7 (Homo sapiens, UniProt Q9NYK1).
T1 sequence (Q9NYK1 27-1049): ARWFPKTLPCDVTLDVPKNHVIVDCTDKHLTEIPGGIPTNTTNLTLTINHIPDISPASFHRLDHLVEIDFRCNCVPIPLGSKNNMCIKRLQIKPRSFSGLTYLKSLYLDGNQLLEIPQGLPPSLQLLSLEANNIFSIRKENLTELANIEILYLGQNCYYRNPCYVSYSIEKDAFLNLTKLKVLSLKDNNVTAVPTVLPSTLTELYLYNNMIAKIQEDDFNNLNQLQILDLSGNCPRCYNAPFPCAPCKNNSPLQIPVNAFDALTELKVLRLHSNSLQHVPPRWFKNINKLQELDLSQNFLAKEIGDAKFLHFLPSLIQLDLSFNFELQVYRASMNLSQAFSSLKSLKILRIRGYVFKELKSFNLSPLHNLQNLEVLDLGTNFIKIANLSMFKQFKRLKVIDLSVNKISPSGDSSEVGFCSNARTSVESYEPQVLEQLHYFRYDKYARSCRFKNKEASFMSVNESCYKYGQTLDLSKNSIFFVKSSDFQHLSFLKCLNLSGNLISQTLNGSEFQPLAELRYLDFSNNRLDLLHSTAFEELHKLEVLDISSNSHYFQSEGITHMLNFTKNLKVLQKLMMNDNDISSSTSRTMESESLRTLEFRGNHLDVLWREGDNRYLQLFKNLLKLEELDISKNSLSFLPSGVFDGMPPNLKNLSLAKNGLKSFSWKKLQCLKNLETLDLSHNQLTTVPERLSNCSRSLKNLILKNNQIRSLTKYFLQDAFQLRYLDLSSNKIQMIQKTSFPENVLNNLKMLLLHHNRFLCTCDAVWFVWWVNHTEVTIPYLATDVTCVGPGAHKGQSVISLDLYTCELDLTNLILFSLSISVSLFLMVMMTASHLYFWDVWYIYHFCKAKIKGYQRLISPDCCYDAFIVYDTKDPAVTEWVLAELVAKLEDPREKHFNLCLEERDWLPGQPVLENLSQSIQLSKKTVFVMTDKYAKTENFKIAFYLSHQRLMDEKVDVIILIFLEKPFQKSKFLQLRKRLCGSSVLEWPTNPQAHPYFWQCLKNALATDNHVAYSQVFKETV
In words: HEK293-Blue-hTLR-7 cells assay. As to conditions: HEK293-Blue-hTLR7 cells, R848 stimulation, 20 hrs, SEAP reporter; read-out: HEK/hTLR7 IC50. Format: cell-based. The source says:
HEK293-Blue-hTLR-7 Cells Assay:
A stable HEK293-Blue-hTLR-7 cell line was purchased from InvivoGen (Cat. #: hkb-htlr7, San Diego, California, USA). These cells were originally designed for studying the stimulation of human TLR7 by monitoring the activation of NF-κB. A SEAP (secreted embryonic alkaline phosphatase) reporter gene was placed under the control of the IFN-β minimal promoter fused to five NF-κB and AP-1-binding sites. The SEAP was induced by activating NF-κB and AP-1 via stimulating HEK-Blue hTLR7 cells with TLR7 ligands. Therefore the reporter expression was declined by TLR7 antagonist under the stimulation of a ligand, such as R848 (Resiquimod), for incubation of 20 hrs. The cell culture supernatant SEAP reporter activity was determined using QUANTI-Blue™ kit (Cat. #: rep-qb1, Invivogen, San Diego, Ca. USA) at a wavelength of 640 nm, a detection medium that turns purple or blue in the presence of alkaline phosphatase.
HEK293-Blue-hTLR7 cells were incubated at a density of 250,000˜450,000 cells/mL in a volume of 170 μL in a 96-well plate in Dulbecco's Modified Eagle's medium (DMEM) containing 4.5 g/L glucose, 50 U/mL penicillin, […], […], 2 mM L-glutamine, 10% (v/v) heat-inactivated fetal bovine serum with addition of 20 μL test compound 1n a serial dilution in the presence of final DMSO at 1% and 10 μL of 20 uM R848 in above DMEM, perform incubation under 37° C. in a CO2 incubator for 20 hrs. Then 20 μL of the supernatant from each well was incubated with 180 μL Quanti-blue substrate solution at 37° C. for 2 hrs and the absorbance was read at 620-655 nm using a spectrophotometer. The signaling pathway that TLR7 activation leads to downstream NF-κB activation has been widely accepted, and therefore similar reporter assay was modified for evaluating TLR7 antagonist.
With `C[C@@H]1CN(c2ccc(C#N)c3ncccc23)C[C@@H]2c3ccc(N4CCOC5(CNC5)C4)cc3CN12` [Example 24, 5-[(4R,10bS)-4-methyl-8-(5-oxa-2,8-diazaspiro[3.5]nonan-8-yl)-3,4,6,10b-tetrahydro-1H-pyrazino[2,1-a]isoindol-2-yl]quinoline-8-carbonitrile], the IC50 amounted to 3.4 nM. `CN[C@@H]1CN(c2ccc3c(c2)CN2[C@H](C)CN(c4ccc(C#N)c5ncccc45)C[C@H]32)C[C@H]1O` [Example 43, 5-[(4R,10bS)-4-methyl-8-[(3R,4R)-3-hydroxy-4-(methylamino)pyrrolidin-1-yl]-3,4,6,10b-tetrahydro-1H-pyrazino[2,1-a]isoindol-2-yl]quinoline-8-carbonitrile]: the IC50 was 4 nM. The figure for `C[C@@H]1CN(c2ccc(C#N)n3nccc23)C[C@@H]2c3ccc(N[C@H]4CNC[C@H]4F)cc3CN12` [Example 98, 4-[(4R,10bS)-8-[[(3S,4R)-4-fluoropyrrolidin-3-yl]amino]-4-methyl-3,4,6,10b-tetrahydro-1H-pyrazino[2,1-a]isoindol-2-yl]pyrazolo[1,5-a]pyridine-7-carbonitrile] is 23.2 nM; for `C[C@@H]1CN(c2ccc(C#N)c3ncccc23)C[C@@H]2c3ccc(N4CC5(CNCCO5)C4)cc3CN12` [Example 35, 5-[(4R,10bS)-4-methyl-8-(5-oxa-2,8-diazaspiro[3.5]nonan-2-yl)-3,4,6,10b-tetrahydro-1H-pyrazino[2,1-a]isoindol-2-yl]quinoline-8-carbonitrile] it is under 3.2 nM; for `C[C@@H]1CN(c2ccc(C#N)n3nccc23)C[C@@H]2c3ccc(N4C[C@H](N)[C@@](C)(O)C4)cc3CN12` [Example 109, 4-[(4R,10bS)-8-[(3S,4S)-4-amino-3-hydroxy-3-methyl-pyrrolidin-1-yl]-4-methyl-3,4,6,10b-tetrahydro-1H-pyrazino[2,1-a]isoindol-2-yl]pyrazolo[1,5-a]pyridine-7-carbonitrile] it is 28.1 nM. `C[C@@H]1CN(c2ccc(C#N)c3ncccc23)C[C@@H]2c3ccc(N[C@@H]4CNC[C@H]4F)cc3CN12` [Example 33, 5-[(4R,10bS)-8-[[(3R,4R)-4-fluoropyrrolidin-3-yl]amino]-4-methyl-3,4,6,10b-tetrahydro-1H-pyrazino[2,1-a]isoindol-2-yl]quinoline-8-carbonitrile]: the IC50 is under 3.2 nM. Under `C[C@@H]1CN(c2ccc(C#N)c3ncccc23)C[C@@H]2c3ccc(N4CCNC[C@@H](O)C4)cc3CN12` [Example 53B, 5-[(4R,10bS)-8-[(6R)-6-hydroxy-1,4-diazepan-1-yl]-4-methyl-3,4,6,10b-tetrahydro-1H-pyrazino[2,1-a]isoindol-2-yl]quinoline-8-carbonitrile] stands 8.9 nM; under `C[C@@H]1CN(c2ccc(C#N)c3ncccc23)C[C@@H]2c3ccc(N4C[C@H](N)[C@@H](F)C4)cc3CN12` [Example 49, 5-[(4R,10bS)-8-[(3S,4S)-3-amino-4-fluoro-pyrrolidin-1-yl]-4-methyl-3,4,6,10b-tetrahydro-1H-pyrazino[2,1-a]isoindol-2-yl]quinoline-8-carbonitrile], 4.5 nM.

Take `C[C@@H]1CN(c2ccc(C#N)c3ncccc23)C[C@@H]2c3ccc(N4CCOCC(N)C4)cc3CN12` (stereo partly drawn) [Example 54, 5-[(4R,10bS)-8-(6-amino-1,4-oxazepan-4-yl)-4-methyl-3,4,6,10b-tetrahydro-1H-pyrazino[2,1-a]isoindol-2-yl]quinoline-8-carbonitrile]: the IC50 is 4 nM. `C[C@@H]1CN(c2ccc(C#N)c3ncccc23)C[C@@H]2c3ccc(N4CCC(C)(N)CC4)cc3CN12` [Example 51, 5-[(4R,10bS)-8-(4-amino-4-methyl-1-piperidyl)-4-methyl-3,4,6,10b-tetrahydro-1H-pyrazino[2,1-a]isoindol-2-yl]quinoline-8-carbonitrile]: the IC50 was determined as 1.4 nM.

Take `C[C@@H]1CN(c2ccc(C#N)c3ncccc23)C[C@@H]2c3ccc(N4CCOC[C@H](N)C4)cc3CN12` [Example 54A, 5-[(4R,10bS)-8-[(6R)-6-amino-1,4-oxazepan-4-yl]-4-methyl-3,4,6,10b-tetrahydro-1H-pyrazino[2,1-a]isoindol-2-yl]quinoline-8-carbonitrile]: the IC50 is 4.5 nM. The figure for `C[C@@H]1CN(c2ccc(C#N)n3nccc23)C[C@@H]2c3ccc(N4CC[C@@H](N)C4)cc3CN12` [Example 96, 4-[(4R,10bS)-8-[(3R)-3-aminopyrrolidin-1-yl]-4-methyl-3,4,6,10b-tetrahydro-1H-pyrazino[2,1-a]isoindol-2-yl]pyrazolo[1,5-a]pyridine-7-carbonitrile] is 32.6 nM; for `C[C@@H]1CN(c2ccc(C#N)c3ncccc23)C[C@@H]2c3ccc(NC4CNCCOC4)cc3CN12` (stereo partly drawn) [Example 56, 5-[(4R,10bS)-4-methyl-8-(1,4-oxazepan-6-ylamino)-3,4,6,10b-tetrahydro-1H-pyrazino[2,1-a]isoindol-2-yl]quinoline-8-carbonitrile] it is 6.9 nM; for `C[C@@H]1CN(c2ccc(C#N)n3ncc(F)c23)C[C@@H]2c3ccc(N4C[C@H](N)[C@@](C)(O)C4)cc3CN12` [Example 112, 4-[(4R,10bS)-8-[(3S,4S)-4-amino-3-hydroxy-3-methyl-pyrrolidin-1-yl]-4-methyl-3,4,6,10b-tetrahydro-1H-pyrazino[2,1-a]isoindol-2-yl]-3-fluoro-pyrazolo[1,5-a]pyridine-7-carbonitrile] it is 11.4 nM. On to `C[C@@H]1CN(c2ccc(C#N)n3nccc23)C[C@@H]2c3ccc(N4CC[C@@](C)(N)C4)cc3CN12` [Example 103, 4-[(4R,10bS)-8-[(3R)-3-amino-3-methyl-pyrrolidin-1-yl]-4-methyl-3,4,6,10b-tetrahydro-1H-pyrazino[2,1-a]isoindol-2-yl]pyrazolo[1,5-a]pyridine-7-carbonitrile], for which the IC50 was found to be 25.8 nM. As to `C[C@@H]1CN(c2ccc(C#N)c3ncccc23)C[C@@H]2c3ccc(N4CCNC[C@](C)(O)C4)cc3CN12` [Example 55A, 5-[(4R,10bS)-8-[(6S)-6-hydroxy-6-methyl-1,4-diazepan-1-yl]-4-methyl-3,4,6,10b-tetrahydro-1H-pyrazino[2,1-a]isoindol-2-yl]quinoline-8-carbonitrile], the IC50 was 7.7 nM.

With `C[C@@H]1CN(c2ccc(C#N)c3ncccc23)C[C@@H]2c3ccc(N4CCNCC(C)(O)C4)cc3CN12` (stereo partly drawn) [Example 55, 5-[(4R,10S)-8-(6-hydroxy-6-methyl-1,4-diazepan-1-yl)-4-methyl-3,4,6,10b-tetrahydro-1H-pyrazino[2,1-a]isoindol-2-yl]quinoline-8-carbonitrile], the IC50 was 6.5 nM. Take `C[C@@H]1CN(c2ccc(C#N)c3ncccc23)C[C@@H]2c3ccc(N4CCNC[C@H](O)C4)cc3CN12` [Example 53A, 5-[(4R,10bS)-8-[(6S)-6-hydroxy-1,4-diazepan-1-yl]-4-methyl-3,4,6,10b-tetrahydro-1H-pyrazino[2,1-a]isoindol-2-yl]quinoline-8-carbonitrile]: the IC50 turned out to be 3.9 nM. Under `CO[C@@H]1CNC[C@H]1Nc1ccc2c(c1)CN1[C@H](C)CN(c3ccc(C#N)c4ncccc34)C[C@H]21` [Example 34, 5-[(4R,10bS)-8-[[(3R,4R)-4-methoxypyrrolidin-3-yl]amino]-4-methyl-3,4,6,10b-tetrahydro-1H-pyrazino[2,1-a]isoindol-2-yl]quinoline-8-carbonitrile] stands 7.4 nM.
